From patent publication US12509459B2, “Inhibitors of NLRP3 inflammasome” (BioAge Labs, Inc., priority 2024, dated 2025)

Target: NLRP3 (Homo sapiens, UniProt Q96P20)
Assay: THP-1 cell-based NLRP3 activation assay
Set-up: endogenous in cells; host or cells: THP-1 cells (PMA-differentiated, LPS-primed, nigericin-stimulated)
Conditions: PMA-differentiated THP-1 cells, LPS 100 ng/mL then 10 μM nigericin
Procedure: THP-1 cells are cultured in complete media (CM) until they reach logarithmic growth and achieve a viability >90%. CM is composed of RPMI-1640 (+Glutamax)/10% fetal bovine serum/55 μM β-mercaptoethanol/pen/strep. Cells are spun down and resuspended to 1,000,000 cells/mL in CM containing either 20 nM or 500 nM PMA. 150,000 cells (150 μL) are then added to each well of a 96-well TC plate and incubated for either 24 hr or 3 hr, respectively, in a standard cell culture incubator (37° C.; 5% CO2). After this incubation, the plate is tilted and media carefully removed. 200 μL of CM containing 100 ng/mL LPS is then added to the wells and the cells incubated an additional 3 hrs. The media is again removed and replaced with Opti-Mem medium containing pre-determined dilutions of test compounds in replicate wells. After a 30 min incubation, 10 μM nigericin (final concentration) in Opti-Mem medium with the corresponding concentration of compound is added to the wells for an additional 1 hr. Positive control wells contain 10 μM nigericin in Opti-Mem in the absence of test compound, while negative control wells contain Opti-Mem only. […] Once supernatants are removed, the relative viability of adherent cells in the 96-well TC plate are determined using a CellTiter-Glo® luminescent cell viability assay (Promega).

Chain of NLRP3 (Q96P20 whole entry): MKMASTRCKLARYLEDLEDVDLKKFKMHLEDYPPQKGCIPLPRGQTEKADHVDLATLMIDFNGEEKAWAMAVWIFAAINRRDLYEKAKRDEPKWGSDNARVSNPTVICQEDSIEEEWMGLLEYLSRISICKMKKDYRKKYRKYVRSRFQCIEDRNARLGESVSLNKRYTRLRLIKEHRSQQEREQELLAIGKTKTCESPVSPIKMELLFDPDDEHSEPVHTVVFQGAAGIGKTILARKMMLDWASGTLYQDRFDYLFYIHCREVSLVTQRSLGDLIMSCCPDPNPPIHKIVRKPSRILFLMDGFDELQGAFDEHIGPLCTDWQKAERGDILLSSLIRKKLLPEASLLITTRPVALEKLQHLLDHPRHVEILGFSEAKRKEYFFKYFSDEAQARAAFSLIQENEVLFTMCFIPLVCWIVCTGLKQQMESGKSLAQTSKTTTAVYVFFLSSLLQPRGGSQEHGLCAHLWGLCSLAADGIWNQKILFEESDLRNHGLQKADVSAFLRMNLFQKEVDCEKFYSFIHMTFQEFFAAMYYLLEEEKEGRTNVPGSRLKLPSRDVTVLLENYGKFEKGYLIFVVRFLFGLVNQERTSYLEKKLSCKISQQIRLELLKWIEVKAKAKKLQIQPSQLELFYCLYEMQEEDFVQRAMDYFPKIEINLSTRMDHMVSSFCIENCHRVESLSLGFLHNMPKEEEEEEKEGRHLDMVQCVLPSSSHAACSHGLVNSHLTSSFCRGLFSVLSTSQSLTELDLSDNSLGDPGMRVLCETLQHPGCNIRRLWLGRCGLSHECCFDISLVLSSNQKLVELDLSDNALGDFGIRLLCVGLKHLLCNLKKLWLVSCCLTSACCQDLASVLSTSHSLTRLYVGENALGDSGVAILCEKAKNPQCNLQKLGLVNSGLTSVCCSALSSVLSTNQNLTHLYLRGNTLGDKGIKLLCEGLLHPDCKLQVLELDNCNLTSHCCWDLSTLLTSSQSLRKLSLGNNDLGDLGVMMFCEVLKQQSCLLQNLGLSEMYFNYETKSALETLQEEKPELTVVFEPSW

Structure (SMILES)	IC50
CCOc1cc(C(=O)N(C)[C@@H](CCO)c2cncc3cn[nH]c23)ccc1-c1cccc(F)c1 [Compound 009]	< 100 nM
CCOc1cc(C(=O)N(C)[C@H](CO)c2cnc(CO)c3cn[nH]c23)ccc1-c1cccc(Cl)c1 [Compound 036]	< 100 nM
CCc1ncc([C@@H](CO)N(C)C(=O)c2ccc(-c3cccc(F)c3)c(OC3CC3)c2)c2[nH]ncc12 [Compound 034]	> 15000 nM
CCOc1cc(C(=O)N(C)[C@H](COC)c2cncc3cn[nH]c23)ccc1-c1cccc(F)c1 [Compound 013]	< 100 nM
CCOc1cc(C(=O)N(C)[C@H](CCNC)c2cncc3cn[nH]c23)ccc1-c1ccccc1 [Compound 193]	< 100 nM
CCOc1cc(C(=O)N(C)[C@H](CO)c2cnc(CC)c3cn[nH]c23)ccc1-c1cccc(F)c1 [Compound 033]	< 100 nM
CCOc1cc(C(=O)N(CCN2CCCC2)Cc2cncc3cn[nH]c23)ccc1-c1cccc(F)c1 [Compound 119]	< 100 nM
CCOc1cc(C(=O)N(C)[C@H](CCN(C)CCF)c2cncc3cn[nH]c23)ccc1-c1cccc(F)c1 [Compound 095]	< 100 nM
Cc1ncc([C@@H](CO)N(C)C(=O)c2ccc(-c3cccc(F)c3)c(OC3CC3)c2)c2[nH]ncc12 [Compound 022]	< 100 nM
CCOc1cc(C(=O)N(C)[C@@H](c2cncc3cn[nH]c23)C2CNC2)ccc1-c1cccc(C#N)c1 [Compound 141]	< 100 nM
CCOc1cc(C(=O)N(C)[C@@H](CN2CC(N(C)C)C2)c2cncc3cn[nH]c23)ccc1-c1cccc(F)c1 [Compound 187]	< 100 nM
CCOc1cc(C(=O)N(C)[C@H](CCN(C)C)c2cncc3cn[nH]c23)ccc1-c1cc(Cl)cc(Cl)c1 [Compound 090]	< 100 nM
CCOc1cc(C(=O)N(C)[C@H](CCN(C)C)c2cncc3cn[nH]c23)ccc1C1CC1 [Compound 146]	100 to 500 nM
CCOc1cc(C(=O)N(C)[C@H](CCN(C)C)c2cnc(C)c3cn[nH]c23)ccc1-c1cccc(F)c1 [Compound 075]	< 100 nM
CCOc1cc(C(=O)N(C[C@@H](C)O)[C@@H](C)c2cnc(C)c3cn[nH]c23)ccc1-c1cccc(F)c1 [Compound 060]	> 15000 nM
CCOc1cc(C(=O)N(C)[C@H](CCN)c2cncc3cn[nH]c23)ccc1-c1cccc(F)c1 [Compound 038]	< 100 nM
CCOc1cc(C(=O)N(C)[C@H](CCN(C)C)c2ccc(C)c3cn[nH]c23)ccc1-c1ccccc1 [Compound 204]	100 to 500 nM

Structure (SMILES)	IC50
CCOc1cc(C(=O)N(Cc2cnc(C)c3cn[nH]c23)C2COC2)ccc1-c1cccc(F)c1 [Compound 054]	> 15000 nM
CCOc1cc(C(=O)N(C)[C@H](CCN(C)C)c2cccc3cn[nH]c23)ccc1-c1cccc(F)c1 [Compound 186]	< 100 nM
CCOc1cc(C(=O)N(C)[C@H](CO)c2cnc(C)c3cn[nH]c23)ccc1-c1cc(C)cc(F)c1 [Compound 021]	100 to 500 nM
CCOc1cc(C(=O)N(CCO)Cc2cnc(NC)c3cn[nH]c23)ccc1-c1cccc(F)c1 [Compound 048]	< 100 nM
CCOc1cc(C(=O)N(C)[C@@H](c2cnc(C)c3cn[nH]c23)[C@@H](C)O)ccc1-c1cccc(Cl)c1 [Compound 024]	< 100 nM
CCOc1cc(C(=O)N(C)[C@@H](CCO)c2cnc(C)c3cn[nH]c23)ccc1-c1ccccc1 [Compound 028]	> 15000 nM
CCOc1cc(C(=O)N(CCN2CCC(F)CC2)Cc2cncc3cn[nH]c23)ccc1-c1cccc(F)c1 [Compound 110]	< 100 nM
CCOc1cc(C(=O)N(C)[C@H](CCNCCF)c2cncc3cn[nH]c23)ccc1-c1ccccc1 [Compound 136]	< 100 nM
CCOc1cc(C(=O)N(C)[C@@H](CN(CC)CC)c2cncc3cn[nH]c23)ccc1-c1cccc(F)c1 [Compound 128]	< 100 nM
CCOc1cc(C(=O)N(C)[C@H](CCN2CCC2)c2cncc3cn[nH]c23)ccc1-c1cccc(F)c1 [Compound 077]	< 100 nM
CCOc1cc(C(=O)N(C)[C@H](c2cncc3cn[nH]c23)[C@@H]2CCNC2)ccc1-c1ccccc1 [Compound 154]	< 100 nM
CCOc1cc(C(=O)N(C)[C@H](CCN(CC)CCF)c2cncc3cn[nH]c23)ccc1-c1cccc(F)c1 [Compound 184]	< 100 nM
CCOc1cc(CN(CCN(CC)CC)Cc2cncc3cn[nH]c23)ccc1-c1cccc(F)c1 [Compound 120]	< 100 nM
CCOc1cc(C(=O)N(C)[C@H](CO)c2cncc3cn[nH]c23)ccc1-c1cc(F)cc(F)c1 [Compound 002]	< 100 nM
CCOc1cc(C(=O)N(C)[C@H](CCN)c2cncc3cn[nH]c23)ccc1C [Compound 185]	1000 to 15000 nM
CCOc1cc(C(=O)N(C)[C@@H](c2cncc3cn[nH]c23)C2CN(C(C)C)C2)ccc1-c1cccc(F)c1 [Compound 175]	< 100 nM
CCOc1cc(C(=O)N(C)[C@H](CCN(C)C)c2cncc3cn[nH]c23)ccc1-c1cccc(C)c1 [Compound 091]	< 100 nM

Second part, the molecule after the results:

IC50	Structure (SMILES)
< 100 nM	CCOc1cc(C(=O)N(Cc2cccc3cn[nH]c23)[C@H]2C[C@@H](NC)C2)ccc1-c1cccc(C#N)c1 [Compound 265]
100 to 500 nM	CCOc1cc(C(=O)N(Cc2cncc3cn[nH]c23)C2CC(N(C)C)C2)ccc1-c1cccc(Cl)c1 (stereo not drawn) [Compound 242]
1000 to 15000 nM	CCOc1cc(C(=O)N(C)[C@H](CN(CC)CC)c2cccc3cn[nH]c23)ccc1-c1cccc(F)c1 [Compound 260]
< 100 nM	CCOc1cc(C(=O)N(C)[C@@H](c2cccc3cn[nH]c23)C2CN(C)C2)ccc1-c1cccc(Cl)c1 [Compound 282]
100 to 500 nM	CCOc1cc(C(=O)N(C)[C@H](c2c[nH]cn2)c2cncc3cn[nH]c23)ccc1-c1cccc(F)c1 [Compound 267]
< 100 nM	CCOc1cc(C(=O)N(Cc2cncc3cn[nH]c23)[C@H]2C[C@@H](N(C)C)C2)ccc1-c1cccc(F)c1 [Compound 244]
1000 to 15000 nM	CCOc1cc(C(=O)N(Cc2cncc3cn[nH]c23)C2CC(N(C)C)C2)ccc1-c1ccccc1 (stereo not drawn) [Compound 243]
< 100 nM	CCOc1cc(C(=O)N(C)[C@@H](CCN(C)C)c2cccc3cn[nH]c23)ccc1-c1ccccc1 [Compound 212]
< 100 nM	CCOc1cc(C(=O)N(C)[C@H](c2cccc3cn[nH]c23)C2CN(C)C2)ccc1-c1cccc(Cl)c1 [Compound 283]
< 100 nM	CCOc1cc(C(=O)N(Cc2cncc3cn[nH]c23)[C@H]2C[C@@H](N(C)C)C2)ccc1-c1cccc(Cl)c1 [Compound 253]
< 100 nM	CCOc1cc(C(=O)N(C)[C@H](CC[N+](C)(C)[O-])c2cccc3cn[nH]c23)ccc1-c1cccc(Cl)c1 [Compound 206]
< 100 nM	CCOc1cc(C(=O)N(Cc2cncc3cn[nH]c23)[C@H]2C[C@@H](NC)C2)ccc1-c1cccc(Cl)c1 [Compound 238]
< 100 nM	CN(C(=O)c1ccc(-c2cccc(F)c2)c(OC2CC2)c1)[C@H](CCN1CCC1)c1cncc2cn[nH]c12 [Compound 225]
< 100 nM	CCOc1cc(C(=O)N(C)C(c2cccc3cn[nH]c23)C2CN(C)C2)ccc1-c1cccc(Cl)c1 (stereo not drawn) [Compound 241]
< 100 nM	[2H]C([2H])([2H])NCC[C@H](c1cncc2cn[nH]c12)N(C)C(=O)c1ccc(-c2cccc(F)c2)c(OCC)c1 [Compound 231]
< 100 nM	CCOc1cc(C(=O)N(Cc2ccc(C)c3cn[nH]c23)[C@H]2C[C@@H](N(C)C)C2)ccc1-c1cccc(Cl)c1 [Compound 285]
< 100 nM	CCOc1cc(C(=O)N(Cc2cncc3cn[nH]c23)[C@H]2C[C@@H](NC)C2)ccc1-c1cccc(C#N)c1 [Compound 291]
